# Measurements published in patent US6656963B2, “Indole-3-carbinol (I3C) derivatives and methods” (The Regents of the University of California, priority 1997, dated 2003).
# Entries after “also recorded” stand apart in the source; their conditions may differ. Where two headings read alike, the source gives them in different places.
# Tests used:
# estrogen receptor (ER) = assay: ERE-vit-CAT reporter plasmid activity in transiently transfected MCF7 cells; format: cell-based, human; details: 48 hours; for effect on ERE-vit-CAT activity: estrogen 100 nM
# Description: Cancer cells are also treated with combinations of indole-derivatives and either steroidal or nonsteroidal anti-estrogens, such as tamoxifen, ICI 164384 and raloxifene (39, 52), at both suboptimal and optimal doses to determine the ability of a given I3C derivative to syngerize with the anti-estrogens in the growth suppression response. […] For example, MCF7 cells are transiently transfected with the ERE-vit-CAT reporter plasmid, which contains three estrogen responsive elements, and the cells monitored for changes in estrogen regulated CAT activity. For comparison, the effects of the I3C derivatives on growth of the estrogen-non-responsive MDA-MB-231 breast cell line are examined. […] Therefore, purified indole derivatives is also assayed in MCF7 cells for Ah receptor affinity, activation of Ah receptor binding to DNA, and activation of an Ah receptor-responsive CAT reporter (17).
# (§1) I3C effects on estrogen receptor (ER) function was monitored by transient transfection of an ERE-vit-CAT reporter plasmid containing the vitellogenin promoter with three estrogen response elements linked upstream and driving the bacterial chloramphenicol acetyl transferase (CAT) gene.
# CDK4 = assay: Western/Northern blot of CDK4 expression; format: cell-based, human; details: same conditions as CDK6 reduction
# Description: (§2) Our finding that I3C inhibits the protein levels of the CDK6 cell cycle component provides a unique molecular assay to determine the ability of a given I3C derivative to induce a cell cycle arrest of cancer cells. For example, I3C derivatives may be analyzed by western blot to determine the level of CDK6 protein produced in treated or untreated human MCF7 breast cancer cells. In particular, cells are treated with varying concentrations, varying times alone or in the presence of particular sets of anti-estrogens; treatment with I3C may be used as a positive control. The cell extracts are then electrophoretically fractionated in SDS polyacrylamide gels, blotted onto nitrocellular membranes, the blotted proteins probed with CDK6 antibodies and the CDK6 protein visualized by autoradiography. Other G1 acting cell cycle genes maybe examined to confirm that a given I3C derivative is acting similarly to I3C itself. For example, the levels of the other cyclin dependent kinases (CDK2 and CDK4), cell cycle activators (cyclin D 1, D2, D3 and E) or cell cycle inhibitors (p 15, 16, p21 or p27) that function at discrete times within G1 may be assessed in indole treated or untreated MCF7 breast cancer cells. […]
# [1] = tested on: 7,12-dimethyl-benz(α)anthracene (DMBA)-induced mammary tumors; details: cited from earlier work
# [2] = tested on: human MCF7 breast cancer cells; details: 50 μM, long term treatment (up to six weeks), high density cultures; cited from earlier work
# CDK6 [3] = assay: CDK6 protein expression in estrogen receptor negative cell lines; format: cell-based
# Description: To determine the mechanism by which I3C induces the G1 cell cycle arrest of human breast cancer cells, Western blot and Northern blot analyses were utilized to examine whether I3C treatment regulates the protein production and transcript expression of the cyclin dependent protein kinases (CDKs), cyclins and CDK Inhibitor components of the cell cycle that function within the G1 phase. […] In particular, CDK6 transcript levels dropped about 30% in 5 hrs and 60% by 15 hours. […] Furthermore, 13C inhibits CDK6 protein expression in estrogen receptor negative cell lines. […] This novel observation provides a basis for a molecular diagnostic assay to determine the sensitivity of a given tumor sample to I3C growth suppression.
# p21 cell cycle inhibitor = assay: Western blot of p21 cell cycle inhibitor level; format: cell-based, human; details: only after 72-96 hours of treatment
# Description: Western blot analysis has shown that I3C stimulates the level of the p21 cell cycle inhibitor by approximately 3-4 fold only after 72-96 hours of indole treatment, which is when the cells begin to display their maximal cell cycle arrest. This response is not likely to initiate the cell cycle arrest, though provides another useful molecular marker to in the examination of tissue biopsies.
# [4] = tested on: MCF7 human breast cancer cells; assay: cells; details: for cell proliferation: 48 hours
# Description: (§3) Particularly suitable assays for I3C derivatives include evaluating their ability to induce a G1 cell cycle arrest and to inhibit CDK6 protein levels in cultured MCF7 breast cancer cells. For the cell proliferative asssays, we have sucessfully employed several methods that we have previously described for rodent mammary tumor cells (44, 51). Briefly, human MCF7 breast cancer cells are cultured at subconfluency in medium supplemented with 10% fetal bovine serum and […] insulin. […] The incorporation of [^3H]thymidine (in a two hour pulse) into 10% trichloroacetic acid precipitable material are used to monitor and quantitate DNA synthesis and provides a direct measure of the proliferative state of the cells.
# (§4) Antiproliferative effects of a combination of I3C and the anti-estrogen tamoxifen on breast cancer cell growth: Estrogen receptor (ER)-containing MCF7 or ER-deficient MDA-MB-231 breast cancer cells were treated for 48 hours with 100 μM I3C or 10 μM tamoxifen alone or with a combination of both reagents, and [^3H]thymidine incorporation used as a measure of cell proliferation.
# CDK2 = assay: Western/Northern blot of CDK2 expression; format: cell-based, human; details: same conditions as CDK6 reduction
# Description: as §2
# [5] = tested on: methylnitrosourea-induced mammary tumors; details: administered prior to and during methylnitrosourea treatment; cited from earlier work
# [6] = tested on: estrogen receptor-deficient MDA-MB-231 breast cancer cells; assay: [3H]thymidine incorporation in estrogen receptor-deficient breast cancer cells; format: cell-based, human; details: for growth inhibitory effect: 48 hours, 100 μM I3C, 10 μM tamoxifen, alone or combined
# Description: as §1, §4
# CDK6 [7] = assay: Western and Northern blot of CDK6 in treated breast cancer cells; format: cell-based, human; details: for level of CDK6 protein (Western blot): cells treated with combinations of I3C and/or tamoxifen
# Description: For example, I3C derivatives may be analyzed by western blot to determine the level of CDK6 protein produced in treated or untreated human MCF7 breast cancer cells. In particular, cells are treated with varying concentrations, varying times alone or in the presence of particular sets of anti-estrogens; treatment with I3C may be used as a positive control. The cell extracts are then electrophoretically fractionated in SDS polyacrylamide gels, blotted onto nitrocellular membranes, the blotted proteins probed with CDK6 antibodies and the CDK6 protein visualized by autoradiography. […] For example, the levels of the other cyclin dependent kinases (CDK2 and CDK4), cell cycle activators (cyclin D 1, D2, D3 and E) or cell cycle inhibitors (p 15, 16, p21 or p27) that function at discrete times within G1 may be assessed in indole treated or untreated MCF7 breast cancer cells.
# To determine the mechanism by which I3C induces the G1 cell cycle arrest of human breast cancer cells, Western blot and Northern blot analyses were utilized to examine whether I3C treatment regulates the protein production and transcript expression of the cyclin dependent protein kinases (CDKs), cyclins and CDK Inhibitor components of the cell cycle that function within the G1 phase.
# [8] = tested on: spontaneous mammary tumors; details: cited from earlier work
# [9] = tested on: estradiol 2-hydroxylation; details: oral, around 500 mg daily for one week, men and women; cited from earlier work
# MCF-7 cells = assay: Flow cytometry of nuclear DNA content (propidium iodide), cell cycle arrest; format: cell-based, human; details: for percentage of MCF7 cells arrested in G1: I3C, tamoxifen alone or combined
# Description: as §3
# To assess the cell cycle effects of I3C, MCF-7 cells treated with or without 100 μM I3C for 96 hours were hypotonically lysed in the presence of propidium iodide to fluorescently stain the nuclear DNA.
# as §4
# [10] = gastric acid; cited from earlier work
# Ah (dioxin) receptor = details: cited from earlier work
# [11] = tested on: DMBA-induced mammary tumors; details: administered prior to and during DMBA treatment; cited from earlier work
# cell growth = assay: Inhibition of cell growth; format: cell-based
# cyclin D1 = details: estrogen responsive breast cancer cells; cited from earlier work
molecule,measurement,setting,value
"OCc1c[nH]c2ccccc12 [Compound I3C, Indole-3-carbinol]",effect on ERE-vit-CAT activity,estrogen receptor (ER),no effect
same,effect on CDK4 expression,CDK4,no effect
same,reduction of incidence of DMBA-induced mammary tumors,[1]; in the diet or by oral intubation prior to carcinogen,70-80%
same,estradiol-induced proliferation,[2],blocked
same,CDK6 protein expression,CDK6 [3],inhibits
same,stimulation of p21 level,p21 cell cycle inhibitor,3-4 fold
same,cell morphology,[4]; 100 μM,no morphology change
same,cell proliferation,[4]; 100 μM,near maximally growth arrested
same,cell morphology,[4]; 300 μM,changed to a more elongated phenotype
same,cell proliferation,[4]; 300 μM,maximally inhibited
same,IC50,"[4]; Homo sapiens, MCF7, read-out: half-maximal response, inhibition of [3H]thymidine incorporation",30 µM
same,inhibition at 100 µM,"[4]; Homo sapiens, MCF7, read-out: inhibition of MCF7 DNA synthesis ([3H]thymidine incorporation) compared to vehicle controls, 48 hours, 100 μM I3C, 10 μM tamoxifen, alone or combined",~70%
same,inhibition at 100 µM,"[4]; Homo sapiens, MCF7, read-out: inhibition of [3H]thymidine incorporation, 100 μM, after 72 hours",80%
same,inhibition at 100 µM,"[4]; Homo sapiens, MCF7, read-out: inhibition of [3H]thymidine incorporation, 100 μM, after 96 hours",> 90%
same,cell death,[4]; prolonged exposure (5 days),did not result in any detectable cell death
same,reversibility of growth suppression,[4]; time course of addition and withdrawal,completely reversible
same,rate of [3H]thymidine incorporation after withdrawal,[4]; within 48 hours of withdrawal from 48 or 72 hour treated cells,approximately equivalent to untreated cells
same,effect on CDK2 expression,CDK2,no effect
same,reduction of mammary tumor incidence,[5],≤ 65%
same,growth inhibitory effect,[6],strong growth suppression effect
same,inhibition at 100 µM,"[6]; Homo sapiens, MDA-MB-231, 100 μM, read-out: inhibition of proliferation ([3H]thymidine incorporation)",> 50%
same,time of indole treatment to reduced level of CDK6 protein,CDK6 [7]; 48 hours prior to complete cell cycle arrest,≤ 24 h
same,drop of CDK6 transcript levels,CDK6 [7]; by 15 hours,~60%
same,level of CDK6 protein (Western blot),CDK6 [7],reduced the level of CDK6 protein
same,drop of CDK6 transcript levels,CDK6 [7]; in 5 hrs,about 30%
same,reduction of spontaneous mammary tumor incidence and multiplicity,"[8]; diets with 500 or 2000 p.p.m., both doses",ca. 50%
same,tumor latency,[8]; high dose group,prolonged
same,increase in estradiol 2-hydroxylation,[9],approximately 50%
same,cells remaining with G2/M DNA content,"MCF-7 cells; 100 μM, 96 hours",approximately 13%
same,cells with 2n DNA content (G1 block),"MCF-7 cells; 100 μM, 96 hours",75%
same,percentage of MCF7 cells arrested in G1,MCF-7 cells,75%
same,stability in acidic solution,[10],extremely unstable
same,Kd,Ah (dioxin) receptor,27 µM
same,reduction of mammary tumor incidence,[11],≤ 95%
"c1ccc2c(Cc3c[nH]c4ccccc34)c[nH]c2c1 [DIM, 3,3′-diindolylmethane]",reduction of DMBA-induced mammary tumors,[1]; in vivo,highly effective
same,suppression of MCF7 cell growth,[4]; acid products of I3C,do not suppress growth; also recorded: failed to suppress the growth
same,Kd,Ah (dioxin) receptor,0.09 µM
"CC(=O)OCc1cn(C(C)=O)c2ccccc12 [N,O-diacetyl-indole-3-carbinol]",inhibition of cell growth,cell growth,particularly effective inhibitors of cell growth
CC/C(=C(\c1ccccc1)c1ccc(OCCN(C)C)cc1)c1ccccc1 [tamoxifen],inhibition of basal ERE-vit-CAT reporter plasmid activity,estrogen receptor (ER); 10% fetal bovine serum,70%
same,cyclin D1 levels,cyclin D1,reduces
same,growth inhibitory effect,[6],no growth inhibitory effects
same,level of CDK6 protein (Western blot),CDK6 [7],not
same,percentage of MCF7 cells arrested in G1,MCF-7 cells,70%
estrogen,effect on ERE-vit-CAT activity,estrogen receptor (ER),stimulated
